Test [1] concerns ADAR1a mRNA. Description: Q-PCR of ADAR1a mRNA expression in SH-SY5Y cells. Format: cell-based. To be noted: Homo sapiens, 10 micromolar, 24 hours, read-out: QPCR: RNA expresion (% of variation) ADAR1a. The source says: ADAR1a RNA Expression in SH-SY5Y cells (Q-PCR, Applied TaqMan probes ref: Hs 01020780_m1).
(§1) The SH-SY5Y Human neuroblastoma cell line was purchased from ECACC (EC94030304 from the European Collection of Cell Cultures (ECACC)). The cell line SH-SY5Y is a thrice-cloned neuroblastoma, originally from SK-N-SH and first reported in 1978. A neuroblast-like subclone of SK-N-SH, named SH-SY, was subcloned as SH-SY5, which was subcloned again as SH-SY5Y (Biedler J L et al. Cancer Res. 1978; 38:3751-7). Cells were cultured in high glucose D-MEM medium (Sigma, ref D6546) supplemented with 10% dialysed FCS (PAA, ref. A15-507, lot A50708-0050), 2 mM Glutamine (Sigma, G7513) and a 1× mix of Antibiotic-Antimycotic Stabilized (Sigma, ref. A5955) at 37° C. under a humidified atmosphere of 5% CO2. The day preceeding drug or hIFNα treatment, SH-SY5Y cells were plated in 6-well plates at a density of 10^6 cells/well. One 6-well plate was used per experimental condition (concentration or treatment duration). The day after plating, culture medium was removed and cells were incubated for 24 hours with a 10 μM solution of the compound to be tested molecules or a 1000 IU/ml solution of hIFNα (PBL biomedical laboratories). For hIFNα dose-response experiment cells were incubated with 1, 10, 100, and 1000 IU/ml of hIFNα solutions. For hIFNα time-course experiment cells were treated for 24, 48, or 72 hours with a 1000 IU/ml solution of hIFNα. After the different treatments, cells were directly lysed in RLT lysis buffer and total RNA purified according to manufacturer's protocol (Qiagen, RNeasy Plus mini kit, ref. 74134). Total RNA was then reverse transcribed with Thermoscript RT-PCR system Plus Taq (Invitrogen, 11146-032) and the resulting cDNA used for CE-SSCP and quantitative real-time PCR.
(§2) In order to quantify levels of 5-HT2CR, ADAR1 and ADAR2 mRNA expression in SH-SY5Y cells or in prefrontal cortex, total blood and skin of Balb/cJ mice, first-strand cDNA was synthesized by reverse transcription and subjected to TaqMan quantitative real-time PCR analysis (Applied Biosystems). All probes and primers used for the quantitative PCRs were from Applied Bio systems (Gene Expression Assays, Assay-On-Demand) (see Table 1, Applied Biosystems primers and probes references): […]
(§3) Human GAPDH (product no. 4326317E; Applied Biosystems) or mouse GAPDH (product no. 4352339E; Applied Biosystems) were included in each multiplex PCR as an internal control. Real-time PCR and subsequent analysis were performed with a 48-well block StepOne RT PCR system (Applied Biosystems). Quantification of target gene expression in all samples was normalized to GAPDH expression by the equation Ct (target)−Ct (GAPDH)=ΔCt, where Ct is the threshold cycle number. The mean ΔCt value of samples from untreated mice or cells was determined and used as a reference point for the samples corresponding to treated animals or cells. Differences between untreated and treated animals or cells, including individual variation were calculated by the equation (ΔCt (individual treated samples)−ΔCt (mean of untreated samples)=ΔΔCt). Changes in target gene expression (n-fold) in each sample were calculated by 2^−ΔΔCt, from which the means and standard deviations (SD) were derived.
(§4) The SH-SY5Y Human neuroblastoma cell line was purchased from ECACC. Cells were cultured in high glucose D-MEM medium (Sigma, ref. D6546) supplemented with 10% dialysed FCS (PAA, ref. A15-507, lot A50708-0050), 2 mM Glutamine (Sigma, ref. G7513) and a 1× mix of Antibiotic-Antimycotic Stabilized (Sigma, ref. A5955) at 37° C. under a humidified atmosphere of 5% CO2. The day preceeding hIFNα or drug treatment, SH-SY5Y cells were plated in 6-well plates (Corning, Multiwell Plate, 6 well, Corning CellBIND Surface, ref 3335) at a density of 5; 7 or 9·10^6 cells/well for a 72-, 48- or 24-hour treatment respectively. Six or eight wells of 6-well plates were used per experimental condition (control, concentration or treatment duration).

Test [2] has as its system 5-HT2cR mRNA. Description: Editing profile of 5-HT2cR mRNA isoforms by CE-SSCP (nested PCR) in SH-SY5Y cells; enzyme activity indexes worked out from the profile. It is filed as cell-based, human. As to conditions: for activation at 10 µM: Homo sapiens, SH-SY5Y.
For test [3], the system named is ADAR1b mRNA. Description: Q-PCR of ADAR1b mRNA expression in SH-SY5Y cells. It is filed as cell-based. As to conditions: Homo sapiens, 10 micromolar, 24 hours, read-out: QPCR: RNA expresion (% of variation) ADAR1b. How it is done: as §1, §2, §3, §4
Test [4] deals with ADAR2 mRNA. As to the kind of experiment: Q-PCR of ADAR2 mRNA expression in SH-SY5Y cells. As to conditions: Homo sapiens, 10 micromolar, 24 hours, read-out: QPCR: RNA expresion (% of variation) ADAR2. Format: cell-based. How it is done:
as §1, §2, §3, §4

The mark [5] stands for this setting: 10 micromolar, 24 hours, read-out: ENZYME ACTIVIY INDEX (% of variation) ADAR1.
Where [6] appears, read: 10 micromolar, 24 hours, read-out: ENZYME ACTIVIY INDEX (% of variation) ADAR1 + 2.
The mark [7] stands for this setting: 10 micromolar, 24 hours, read-out: ENZYME ACTIVIY INDEX (% of variation) ADAR2.
Setting [8] is: 10 micromolar, 24 hours, read-out: ENZYME ACTIVIY INDEX (% of variation) ADARI.
Where [9] appears, read: 10 micromolar, 24 hours, read-out: ENZYME ACTIVIY INDEX (% of variation) ADARII.
Where [10] appears, read: 10 micromolar, 24 hours, read-out: ENZYME ACTIVIY INDEX (% of variation) NE.

Where two headings read alike, the source gives them in different places.

`CC(C)C[C@H](CN)CC(=O)O` [Pregabalin]: the % change in ADAR1a mRNA expression at 10 µM in test [1] was -33%. Also, the activation at 10 µM was 2.5% in test [2] (24 h, read-out: ENZYME ACTIVIY INDEX (% of variation) ADAR1); -8.7% in test [2] (24 h, read-out: ENZYME ACTIVIY INDEX (% of variation) ADAR1 + 2); -6.2% in test [2] (24 h, read-out: ENZYME ACTIVIY INDEX (% of variation) ADAR2); 0.4% in test [2] (24 h, read-out: ENZYME ACTIVIY INDEX (% of variation) ADARI); -8.2% in test [2] (24 h, read-out: ENZYME ACTIVIY INDEX (% of variation) ADARII); -0.1% in test [2] (24 h, read-out: ENZYME ACTIVIY INDEX (% of variation) NE). Moreover, the percent change in mRNA expression at 10 µM in test [3] was -43%. In test [4], the percent change in ADAR2 mRNA expression at 10 µM was -36%.
For the molecule `Cc1c(C(=O)NN2CCCCC2)nn(-c2ccc(Cl)cc2Cl)c1-c1ccc(Cl)cc1` [Rimonabant], the % change in ADAR1a mRNA expression at 10 µM in test [1] was -43%. For the same molecule, the activation at 10 µM in test [2] (setting [5]) is 13.3%; in test [2] (setting [6]), 2.4%; in test [2] (setting [7]), -3.7%; in test [2] (setting [8]) it was 11.3%; in test [2] (setting [9]), 1.2%; in test [2] (setting [10]) it was -10.4%. The “alteration of 5-HT2cR mRNA editing compared with that observed after INFα treatment (component analysis, FIG. 4)” value in test [2] (SH-SY5Y cells, 48 hours, 10 μM) was “similarly altered”. Moreover, the percent change in mRNA expression at 10 µM in test [3] was -32%. Also, in test [4], the percent change in ADAR2 mRNA expression at 10 µM was -7%.
Take `CC1(C)O[C@@H]2[C@@H](CO[C@@]3(COS(N)(=O)=O)OC(C)(C)O[C@@H]23)O1` [Topiramate]: the % change in ADAR1a mRNA expression at 10 µM in test [1] is -44%. For the same molecule, the activation at 10 µM was 14.4% in test [2] (setting [5]); -19.5% in test [2] (setting [6]); 11.4% in test [2] (setting [7]); 8% in test [2] (setting [8]); -13.5% in test [2] (setting [9]); -8% in test [2] (setting [10]). For the same molecule, the percent change in mRNA expression at 10 µM in test [3] is -46%. In addition, the percent change in ADAR2 mRNA expression at 10 µM in test [4] is -60%.
As for `O=c1n(CCCN2CCN(c3cccc(Cl)c3)CC2)nc2ccccn12` [Trazodone], in test [1], the % change in ADAR1a mRNA expression at 10 µM was -60%. Besides, the activation at 10 µM in test [2] (setting [5]) was 0%; in test [2] (setting [6]), 89.3%; in test [2] (setting [7]), 28.4%; in test [2] (setting [8]), 12.9%; in test [2] (setting [9]), 77.7%; in test [2] (setting [10]), 13.4%. Moreover, the percent change in mRNA expression at 10 µM in test [3] was -40%. Besides, the percent change in ADAR2 mRNA expression at 10 µM in test [4] is 5%.
Regarding `NS(=O)(=O)Cc1noc2ccccc12` [Zonisamide], the % change in ADAR1a mRNA expression at 10 µM in test [1] is -24%. The activation at 10 µM in test [2] (setting [5]) was 11.9%; in test [2] (setting [6]), 9.7%; in test [2] (setting [7]), -7.8%; in test [2] (setting [8]), 11.5%; in test [2] (setting [9]), 6.3%; in test [2] (setting [10]) it was -10.5%. Further, the percent change in mRNA expression at 10 µM in test [3] was -19%. Further, the percent change in ADAR2 mRNA expression at 10 µM in test [4] is -23%.

The record behind these values is patent US8771953B2, “Evaluation of the potential risk of drug induced mood disturbance and suicide: use of a dedicated platform” (Biocortech, priority 2008, dated 2014).
